As usually defined, the IC50 is the concentration that gives 50% inhibition. A lower IC50 goes with higher potency.

The values below come from patent US20260364072A1, “METHODS FOR PROMOTING EXPANSION OF HUMAN CD34+ CELLS IN VIVO AND FOR PROMOTING NEURAL REGENERATION” (THE REGENTS OF THE UNIVERSITY OF CALIFORNIA, priority 2023, published 2026).

The subject of data set [1] is CD34+Lin- cells (sAML50261). As to the kind of experiment: sAML50261 PDX mice, flow cytometry of PB, SP, BM. Format: in vivo, human cells in Rag2-/-gc-/- mice. The following applies: 10 mg/kg, intravenously, twice a week for 2 weeks. Here is the method: The mouse models were screened by staining the PB of each mouse with a human CD45 mAb. Mice with a threshold of human CD45^+ cells >1% were included in the treatment cohort for Rebecchini. The dosing plan involved administering Rebecsinib at a dose of 10 mg/kg, intravenously, twice a week for 2 weeks, with a total of 5 doses. Single cells were isolated from the mouse organs, including PB, SP, and BM, and subjected to staining with human stem cell markers and lineage cell markers.
(A flow cytometer gives signals particle by particle.)

For the next data set, the system named is KG-1a AML cells. Description: KG-1a cell viability by flow cytometry. Format: cell-based, human. The note with it: 24 hr. An excerpt:
(FIG. 29A) Quantification of cell viability (left panel) and splicing modulation (RFP/GFP ratios, right panel) by flow cytometry analyses of the human AML cell line (KG-1a) stably transduced with a lentiviral dual-fluorescence splicing reporter vector and treated with increasing concentrations of Rebecsinib.
For generation of stably transduced splicing reporter cell lines, a previously described splicing reporter construct^31 was cloned into a lentiviral vector backbone.^52 KG-1a cells were transduced with the dual-fluorescent lentiviral splicing reporter vector, treated with various concentrations of Rebecsinib (3-fold serial dilutions from 3 μM to 4 nM) for 24 hr, washed followed by DAPI staining, and analyzed by flow cytometry for cell viability and RFP/GFP fluorescence intensity. Results were from duplicate wells of each condition. Viability of cells treated with DMSO (0.5% final concentration) was set as 100%. Nonlinear regression curve fit analysis was carried out using Prism software (GraphPad) to determine ECso values for viability and mean fluorescence intensity (MFI) of RFP and GFP.

The next data set relates to MCL1 transcripts. Description: MCL1-S/L ratio by splice isoform-specific qRT-PCR in primary CD34+ MF HPC and LSC. Format: cell-based, human. The note with it: 0.1 μM, compared with vehicle, short-term culture, no stroma. (In general: Real-time PCR tracks product formation cycle by cycle.)
The nature of data set [2]: Rabbit single-dose toxicokinetic study. Format: in vivo, New Zealand white rabbits. The following applies: IV bolus. Here is the method: Pre-IND PD and toxicokinetic (TK) studies (FIG. 4D) were enabled by scalable Rebecsinib synthesis^34 and development of an optimized formulation for in vivo biodistribution (5% w/v EtOH, 5% w/v Kolliphor HS15 in 0.9% Sodium Chloride). In PK studies, Rebecsinib was detectable in rat, rabbit, and non-human primate (NHP) plasma following IV bolus administration. In rat TK studies, Rebecsinib was quantifiable up to 1-hour post-dose at 1 mg/kg and up to 4 hours post-dose at 3, 5, and 8 mg/kg (FIG. 4E). […] Rebecsinib T1/2 values were 0.342, 0.447, 0.313, and 0.530 hours at 1, 3, 5, and 8 mg/kg, respectively. […] Following 3, 10, and 20 mg/kg boluses, Rebecsinib was quantifiable in plasma 1 hour post-dose and could be detected up to 8 hours post-dosing with 40 mg/kg (FIG. 4F). […] Following 3, 10, 15, and 20 mg/kg of Rebecsinib, quantifiable plasma concentrations of Rebecsinib were observed through 8 hrs post-dose (FIG. 4G).
(FIG. 29D) Schematic diagram outlining multispecies toxicokinetic (TK) and pharmacodynamic studies in mammalian species treated in vivo with a single dose of Rebecsinib. Toxicokinetic analyses were performed in rats (n=6 per sex, per group), rabbits (n=2 per sex, per group), and non-human primates (NHPs, n=1 per sex, per group) and pharmacodynamic splice isoform quantification studies were performed in peripheral blood mononuclear cells (PBMCs) from NHP.
(FIG. 29E, FIG. 29F) For toxicokinetic analyses, rats (FIG. 29E) and rabbits (FIG. 29F) were given a single injection of Rebecsinib at 1-40 mg/kg, or vehicle control, and blood samples were drawn at regular intervals to determine plasma concentrations of the compound over 8 hr after treatment.
Single-dose TK studies were performed in Sprague Dawley rats (Charles River Labs, South San Francisco, CA), New Zealand white rabbits (BASi/Inotiv, West Lafayette, IN), and cynomolgus monkeys (BASi/Inotiv). Rat and rabbit studies included toxicology analyses, quantification of plasma levels of Rebecsinib, and necropsies to evaluate organ integrity after treatment. For NHP studies, health and ophthalmological evaluations were performed before and after dosing with Rebecsinib, and blood samples were collected for quantification of plasma levels of Rebecsinib and biomarker studies in PBMCs from treated and control animals. All monkeys were returned to the animal colony after the end of the observation period. Toxicokinetic values including mean plasma concentrations and t1/2 values were calculated according to CRO-approved protocols (Charles River and BASi).

The subject of data set [3] is ADAR1p150 splice isoform; leukemia stem cells. The following applies: cited from earlier work.

Take `CC[C@H](OC)[C@@H](C)[C@H]1O[C@@H]1[C@@H](O)[C@H](C)/C=C/C=C(\C)[C@H]1OC(=O)C[C@H](O)CC[C@@](C)(O)[C@@H](OC(C)=O)/C=C/[C@@H]1C` [Rebecsinib]: the “human CD45+ cells in PB, BM, and SP” value in data set [1] is recorded as “preserved human CD45^+ cells”. The “CD34+Lin- cell population in SP” value in data set [1] (p=0.0006, Student's t-test) was “significant inhibition”. In addition, in data set [1] (p=0.0015, Student's t-test), the “CD34+Lin- cell population in PB” value is recorded as “significant inhibition”. In addition, the “KG-1a AML cell survival” value in the data set with KG-1a AML cells was “impaired CD34^+ KG-1a AML cell survival”. The same molecule came in with a 50% inhibitory concentration (IC50) with KG-1a AML cells (Homo sapiens, CD34+ KG-1a AML cell survival and RFP to GFP reporter expression) of about 100 nM. For the same molecule, in the data set on MCL1 transcripts, the MCL1-S/L transcript ratio result was “elevated expression of pro-apoptotic MCL1-short (S) compared with anti-apoptotic MCL1-long (L) transcripts”. For the same molecule, the “time quantifiable in plasma post-dose” value in data set [2] (3 mg/kg), in data set [2] (10 mg/kg) and in data set [2] (20 mg/kg) was 1 h throughout. For the same molecule, the “last time detected in plasma post-dosing” value in data set [2] (40 mg/kg) was “up to 8 hours”. Also, in data set [2] (plasma, read-out: plasma t1/2), the half-life lay within 7.2 to 53.4 min. Also, in data set [3], the “activation of the interferon-inducible ADAR1p150 splice isoform” value was “inhibit activation of the interferon-inducible ADAR1p150 splice isoform”. Also, the “malignant splice isoform switching” value in data set [3] is “reverse malignant splice isoform switching”. For the same molecule, the “leukemia stem cell (LSC) maintenance” value in data set [3] (in vitro and in preclinical patient-derived AML mouse models) is listed as “significantly reduce leukemia stem cell (LSC) maintenance”.
